Experimental data: US4272517A, “Permanent waving compositions” (Kanegafuchi Kagaku Kogyo Kabushiki Kaisha, priority 1978, dated 1981)

How the values were obtained:
[1] = Acute oral toxicity (LD50) determined on mice; type: in vivo; conditions: mouse, in vivo, oral administration
Description: (§1) The N-carbamoylcysteine to be used in this invention is preferably N-carbamoyl-L-cysteine or N-carbamoyl-DL-cysteine from the viewpoint of practical usefulness but can be N-carbamoyl-D-cysteine. N-carbamoyl-L-cysteine can be prepared easily, for example, by reacting L-cysteine with potassium cyanate. Since it is possible to synthesize N-carbamoyl-DL-cysteine from an inexpensive industrial material, the compound can presumably be prepared more economically than N-carbamoyl-L-cysteine.

[2] = tested on: mice; assay: Acute oral toxicity (LD50) determined on mice; type: in vivo; conditions: oral administration
Description: as §1

[3] = background statement; cited from earlier work
[4] = type: physicochemical
Description: Eleven kinds of test solutions were prepared with use of L-cysteine and N-carbamoylcysteine in varying ratios as shown in Table 3 to test the solutions for storage stability. Basically these solutions have the following composition.
Each of the solutions was prepared by adding monoethanolamine (about 3 ml), L-cysteine, N-carbamoyl-L-cysteine and tetrasodium ethylenediaminetetraacetate to about 80 ml of purified water in the order mentioned with stirring, and adjusting the resulting solution to 100 ml with its pH adjusted to 9.1 with monoethanolamine. […] Test Solution A is a reference example.
The test solutions were prepared on the same day, placed into 200-ml colorless wide-mouthed reagent bottles respectively and allowed to stand at room temperature (20° to 26° C.) for 60 days with the mouths of the bottles left open. Consequently white powder of cystine separated out on the 9th day from Test Solution A containing L-cysteine alone, whereas Test Solutions B and C further containing N-carbamoyl-L-cysteine yielded white powder on the 15th day and 32nd day respectively. No powdery deposition was found in Test Solutions D to K even after the lapse of 60 days. […]

[5] = Solubility; type: physicochemical; conditions: at a pH of below 8.7

Compound	LD50 [1]	toxicity (in words) [2]	stabilizing effect on cysteine (in words) [4]	also measured
NC(=O)NC(CS)C(=O)O (racemic) [N-carbamoyl-DL-cysteine]	13100 mg/kg	extremely low in toxicity		
N[C@@H](CSSC[C@H](N)C(=O)O)C(=O)O [cystine]				solubility in water (in words) [3]: hardly soluble in water
CC(=O)N[C@@H](CS)C(=O)O [N-acetylcysteine, N-acetyl-L-cysteine, reference compound]			adds to the stability of cysteine	
NC(=O)N[C@@H](CS)C(=O)O [N-carbamoyl-L-cysteine]	13500 mg/kg	extremely low in toxicity		
NC(=O)N[C@@H](CS)C(=O)O [N-carbamoylcysteine]			exceedingly superior	solubility (in words) [5]: not easily soluble
